Results on one compound are retold here after ChEMBL document CHEMBL4371054, “Dual inhibition of Kif15 by oxindole and quinazolinedione chemical probes” (Bioorg Med Chem Lett, 2019).

For orientation: inhibition means the percentage by which the read-out fell short of the control.

The source made the active and inactive calls. No cut-off for these calls is given here.

Test [1] addresses T1, Kinesin-like protein KIF18A (Homo sapiens) (UniProt Q8NI77).
T1 sequence (whole entry): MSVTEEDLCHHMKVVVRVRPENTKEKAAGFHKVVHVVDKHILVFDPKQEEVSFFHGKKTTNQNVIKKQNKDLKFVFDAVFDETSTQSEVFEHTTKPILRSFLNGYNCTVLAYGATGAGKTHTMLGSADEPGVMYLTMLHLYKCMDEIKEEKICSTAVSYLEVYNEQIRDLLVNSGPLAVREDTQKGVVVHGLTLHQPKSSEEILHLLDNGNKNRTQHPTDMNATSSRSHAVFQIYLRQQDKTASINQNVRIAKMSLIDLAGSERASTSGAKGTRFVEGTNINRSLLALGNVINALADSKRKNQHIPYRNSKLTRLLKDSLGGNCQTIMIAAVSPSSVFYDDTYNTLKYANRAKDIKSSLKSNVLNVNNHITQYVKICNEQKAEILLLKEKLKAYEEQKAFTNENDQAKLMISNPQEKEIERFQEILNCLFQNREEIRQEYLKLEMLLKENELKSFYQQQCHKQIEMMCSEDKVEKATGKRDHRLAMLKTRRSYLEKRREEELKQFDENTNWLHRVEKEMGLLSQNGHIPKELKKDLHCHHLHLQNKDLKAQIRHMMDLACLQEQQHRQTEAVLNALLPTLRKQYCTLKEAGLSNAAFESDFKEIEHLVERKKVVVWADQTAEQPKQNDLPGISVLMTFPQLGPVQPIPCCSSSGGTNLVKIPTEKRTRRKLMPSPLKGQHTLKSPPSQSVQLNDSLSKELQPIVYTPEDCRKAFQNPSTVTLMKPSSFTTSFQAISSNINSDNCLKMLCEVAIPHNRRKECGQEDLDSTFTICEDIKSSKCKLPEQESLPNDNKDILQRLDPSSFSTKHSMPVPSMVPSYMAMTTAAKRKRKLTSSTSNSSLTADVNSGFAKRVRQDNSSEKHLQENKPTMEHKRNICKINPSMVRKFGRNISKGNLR
Briefly: Inhibition of Kif18A (unknown origin) assessed as reduction in Alexa-594 labelled microtubule gliding at 30 uM measured every 2 secs for 20 secs by epifluorescence microscopic analysis relative to control.

The target of test [2] is T2, Kinesin-like protein KIF15 (Homo sapiens) (UniProt Q9NS87).
T2 sequence (whole entry): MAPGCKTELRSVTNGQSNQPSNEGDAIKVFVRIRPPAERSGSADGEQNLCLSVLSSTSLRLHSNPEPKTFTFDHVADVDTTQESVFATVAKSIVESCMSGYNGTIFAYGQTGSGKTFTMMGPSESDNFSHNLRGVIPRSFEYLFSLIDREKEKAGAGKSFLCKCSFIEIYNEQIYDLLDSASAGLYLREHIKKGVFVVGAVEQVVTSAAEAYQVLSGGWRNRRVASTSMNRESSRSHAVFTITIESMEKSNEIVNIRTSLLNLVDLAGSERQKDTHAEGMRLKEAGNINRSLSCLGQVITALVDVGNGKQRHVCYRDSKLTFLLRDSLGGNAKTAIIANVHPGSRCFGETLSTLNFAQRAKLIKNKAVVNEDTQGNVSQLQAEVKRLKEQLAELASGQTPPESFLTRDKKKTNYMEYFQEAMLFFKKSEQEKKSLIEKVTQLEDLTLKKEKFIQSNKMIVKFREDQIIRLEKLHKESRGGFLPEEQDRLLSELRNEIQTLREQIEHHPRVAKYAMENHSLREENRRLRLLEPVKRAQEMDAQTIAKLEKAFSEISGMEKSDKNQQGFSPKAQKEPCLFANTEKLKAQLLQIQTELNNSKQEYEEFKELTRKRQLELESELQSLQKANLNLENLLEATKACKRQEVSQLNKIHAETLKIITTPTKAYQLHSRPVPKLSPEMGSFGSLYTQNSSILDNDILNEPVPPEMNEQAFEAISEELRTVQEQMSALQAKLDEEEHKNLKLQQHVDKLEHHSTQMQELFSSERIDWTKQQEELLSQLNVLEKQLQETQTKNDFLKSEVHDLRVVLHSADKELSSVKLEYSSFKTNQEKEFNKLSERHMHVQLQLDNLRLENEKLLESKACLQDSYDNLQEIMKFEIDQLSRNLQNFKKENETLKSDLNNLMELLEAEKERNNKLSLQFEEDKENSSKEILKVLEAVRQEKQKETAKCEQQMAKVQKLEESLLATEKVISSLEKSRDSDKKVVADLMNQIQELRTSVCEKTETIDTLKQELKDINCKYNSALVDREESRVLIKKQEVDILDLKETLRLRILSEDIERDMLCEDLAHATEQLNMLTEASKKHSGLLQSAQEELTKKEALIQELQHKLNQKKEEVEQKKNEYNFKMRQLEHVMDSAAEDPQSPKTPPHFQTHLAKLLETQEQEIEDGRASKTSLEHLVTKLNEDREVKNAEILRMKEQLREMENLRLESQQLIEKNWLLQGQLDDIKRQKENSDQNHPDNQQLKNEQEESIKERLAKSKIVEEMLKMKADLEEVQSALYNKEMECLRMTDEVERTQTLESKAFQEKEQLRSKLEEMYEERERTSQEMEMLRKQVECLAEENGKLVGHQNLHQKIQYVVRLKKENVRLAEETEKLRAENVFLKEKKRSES
The test is described as follows: Reversible inhibition of recombinant His6-tagged Kif15 (N700 residues) (unknown origin) expressed in HeLa cells assessed as reduction in Alexa-594 labelled microtubule gliding at 10 uM treated for 1 min followed by compound washout and measured every 2 secs for 1 min by epifluorescence microscopic analysis. It counts as cell-based.

Test [3] has as its target T2, Kinesin-like protein KIF15 (Homo sapiens). Briefly: Inhibition of recombinant His6-tagged Kif15 (N700 residues) (unknown origin) expressed in HeLa cells assessed as reduction in Alexa-594 labelled microtubule gliding at 30 uM measured every 2 secs for 20 secs by epifluorescence microscopic analysis relative to control. It counts as cell-based.

In the case of `O=C1Nc2ccc(C(=O)c3ccco3)cc2/C1=C/c1cc(Cl)c(O)c(Cl)c1`, the inhibition was 4.9% in test [1] and 98.9% in test [3]. The inhibition result in test [2] was “Active”.
